Here are results for 2 compounds from US20070258989A1, “Immunomodulatory pharmaceutical composition and a process for preparation thereof” (Council of Scientific and Industrial Research, priority 2005, published 2007).

In test [1] the test system is Hepatocytes (primary cultured liver cells). Put plainly: SGOT quantification of cell culture supernatant of liver cells damaged with d-galactosamine. It counts as cell-based. As to conditions: compounds @ 1 μg/ml, 48-72 hrs incubation. On the procedure: Hepatocytes were isolated and cultured into tissue culture plates and damaged with d-galactosamine @ 1 μg/ml and the cells were treated with the compounds under question. After 48-72 hrs of incubation the cell culture supernatant was taken for the estimation of SGOT levels which is indicative of the damage of the primary cultured liver cells.

The subject of test [2] is Normal Mice (Mus musculus). Put plainly: Immunostimulant (humorral) activity: haemagglutination (HA) antibody titre after immunisation with rabbit RBC's. It counts as in vivo. As to conditions: for Haemagglutination titre: mice fed 50-100 mg/Kg body weight, rabbit RBC antigen day 7 and 14, highest serum dilution showing agglutination. The protocol: A. For Humorral Immune Response • a) Treating the animals with the combination of the three coumarinolignoids at the dose in the range of 50-200 mg/Kg body weight for a period of 1-28 days. • b) Administering the animals with an antigen in the range of 0.01 to 0.3 ml of 5×10^9 RBC's in combination with a pharmaceutically acceptable diluent in a range 20-80% of the antigen used on day 7 for the initiation of antibody production. • c) Administering the same dosage regimen of the antigen and diluent as a booster dose after a period of 3-14 days from the day of primary immunization. • d) Withdrawing the blood using a capillary from the orbital plexus of the animal after a period of 18-25 days from the day of primary immunization. • e) Assessing the antibody production in the serum separated and isolated on 28th day through haemagglutination in a 96 well ‘U’ bottom microtitre plate at a titre ranging from 32-2048.
Normal healthy outbred mice, maintained under standard conditions (22±3° C., 12:12 hr light:dark cycle, pellet diet and soaked Bengal gram), 5 animals in each group were taken for the experiment. The animals were fed with the test compound at the dose rate of 50-100 mg/Kg body weight for a period of 1-28 days. Freshly collected and washed rabbit RBC's was used as an antigen which was used to immunize the animal on day 7 followed by the booster dose on day 14th. Blood was collected from the orbital plexus after 21 days and assessed for haemaggluting (HA) titre. The haemagglutination was carried upon using a serial two-fold dilution of the serum in 96 well ‘U’ bottom microtitre plates. The highest dilution showing visible agglutination was taken as the antibody titre.

As for `N[C@H]1C(O)O[C@H](CO)[C@H](O)[C@@H]1O` (stereo partly drawn) [d-galactosamine], the “SGOT levels of the cell culture supernatant” value is given as 286 in test [1] (d-Galactosamine concentration 0.01), 325 in test [1] (d-Galactosamine concentration 0.1), 420 in test [1] (d-Galactosamine concentration 1) and 455 in test [1] (d-Galactosamine concentration 10).

For `O=P1(N(CCCl)CCCl)NCCCO1` (centres unmarked) [Ledoxan, Cyclophosphamide], the “humorral immunity HA titre” value in test [2] (256 in normal control) is reported as 0. In addition, the Haemagglutination titre in test [2] (animal 1), in test [2] (animal 2), in test [2] (animal 3), in test [2] (animal 4), in test [2] (animal 5) and in test [2] (animal 7) was 0 in each case.
